Assay results reported in patent publication US9271960B2, “Tetrahydrocarbazoles as active agents for inhibiting VEGF production by translational control” (PTC Therapeutics, Inc., priority 2004, dated 2016).
Where two headings read alike, the source gives them in different places.

Tested on: VEGF
Test: Hypoxia-inducible endogenous VEGF expression ELISA in HeLa cells
Format: cell-based
Details: Homo sapiens, VEGF protein by ELISA
Procedure: The ability of compounds of the invention to modulate hypoxia-inducible endogenous VEGF expression is analyzed as follows. VEGF protein levels are monitored by an ELISA assay (R&D Systems). Briefly, HeLa cells are cultured for 24-48 hours under hypoxic conditions (1% O2, 5% CO2, balanced with nitrogen) in the presence or absence of a compound of the invention. The conditioned media is then assayed by ELISA, and the concentration of VEGF is calculated from the standard ELISA curve of each assay.
A dose-response analysis is performed using the ELISA assay and conditions described above. A series of different concentrations (e.g., seven) are analyzed. In parallel, a dose-response cytotoxicity assay is performed using Cell Titer Glo (Promega) under the same conditions as the ELISA to ensure that the inhibition of VEGF expression is not due to cytotoxicity. Dose-response curves are plotted using percentage inhibition versus concentration of the compound, and EC50 and CC50 values are generated for each compound with the maximal inhibition set as 100% and the minimal inhibition as 0%.
Compounds 156-188 in Table 1 are commercially available. In Table 1, each of the represented compounds is followed by one to five stars.

[1] = HeLa, compounds 1-155, hypoxic conditions (1% O2), read-out: ELISA Activity
[2] = HeLa, compounds 191-239, hypoxic conditions, read-out: ELISA Activity EC50
[3] = HeLa, purchased compounds 156-188, hypoxic conditions, read-out: ELISA Activity
[4] = HeLa, purchased compounds 156-188, hypoxic conditions, read-out: ELISA EC50

Compound	EC50 [1] [nM]	also measured
CCCCNC1CCCc2c1[nH]c1ccc(Br)cc21 (stereo not drawn) [Compound 72, (6-Bromo-2,3,4,9-tetrahydro-1H-carbazol-1-yl)-butyl-amine]	200 to 1000	–
N#Cc1ccc2[nH]c3c(c2c1)CCCC3n1cccc1 (stereo not drawn) [Compound 59, 8-Pyrrol-1-yl-6,7,8,9-tetrahydro-5H-carbazole-3-carbonitrile]	200 to 1000	–
Brc1ccc2[nH]c3c(c2c1)CCCC3n1ccc(CNc2ccccc2)c1 (stereo not drawn) [Compound 49, [1-(6-Bromo-2,3,4,9-tetrahydro-1H-carbazol-1-yl)-1H-pyrrol-3-ylmethyl]-phenyl-amine]	40 to 200	–
OCC(O)COc1ccc(C2CCCc3c2[nH]c2ccc(Br)cc32)cc1 (stereo not drawn) [Compound 212]	–	EC50 [2]: < 10 nM
Cc1ccc2[nH]c3c(c2c1)CCCC3NCC12CC3CC(CC(C3)C1)C2 (stereo not drawn) [Compound 159, Adamantan-1-ylmethyl-(6-methyl-2,3,4,9-tetrahydro-1H-carbazol-1-yl)-amine]	–	EC50 [3]: 200 to 1000 nM; EC50 [4]: 360 nM
CC(C)(C)OC(=O)n1c2c(c3cc(Br)ccc31)CCCC2=O [Compound 80, 6-Bromo-1-oxo-1,2,3,4-tetrahydro-carbazole-9-carboxylic acid tert-butyl ester]	> 1000	–
c1ccc(CN2CCn3c4c(c5ccccc53)CCCC42)cc1 (stereo not drawn) [Compound 163, 3-Benzyl2,3,3a,4,5,6-hexahydro-1H-pyrazino[3,2,1-jk]carbazole]	–	EC50 [3]: > 1000 nM; EC50 [4]: 1790 nM
OC(COc1ccc(C2CCCCc3c2[nH]c2ccc(Cl)cc32)cc1)CN1CCSCC1 (stereo not drawn) [Compound 233]	–	EC50 [2]: < 10 nM
Fc1ccc(NC2CCCc3c2[nH]c2ccc(Br)cc32)cc1 (stereo not drawn) [Compound 24, (6-Bromo-2,3,4,9-tetrahydro-1H-carbazol-1-yl)-(4-fluoro-phenyl)-amine]	10 to 40	–
C1=C(c2ccc3c(c2)c2c4n3CCN(Cc3ccccc3)C4CCC2)C2CCN1CC2 (stereo not drawn) [Compound 166, 8-(1-Aza-bicyclo[2.2.2]oct-2-en-3-yl)-3-benzyl-2,3,3a,4,5,6-hexahydro-1H-pyrazino[3,2,1-jk]carbazole]	–	EC50 [3]: > 1000 nM; EC50 [4]: 6630 nM
COc1cccc(C(=O)NC2CCCc3c2[nH]c2ccc(Br)cc32)c1OC (stereo not drawn) [Compound 39, N-(6-Bromo-2,3,4,9-tetrahydro-1H-carbazol-1-yl)-2,3-dimethoxy-benzamide]	40 to 200	–
O=Cc1ccn(C2CCCc3c2[nH]c2ccc(Br)cc32)c1 (stereo not drawn) [Compound 38, 1-(6-Bromo-2,3,4,9-tetrahydro-1H-carbazol-1-yl)-1H-pyrrole-3-carbaldehyde]	40 to 200	–
O/N=C1\CCCc2c1[nH]c1c(Br)cccc21 [Compound 98, 8-Bromo-2,3,4,9-tetrahydro-carbazol-1-one oxime]	> 1000	–
OCCc1cccc(NC2CCCc3c2[nH]c2ccc(Br)cc32)c1 (stereo not drawn) [Compound 63, 2-[3-(6-Bromo-2,3,4,9-tetrahydro-1H-carbazol-1-ylamino)-phenyl]-ethanol]	200 to 1000	–
COCCN(CCOC)CC(O)COc1ccc(C2CCCc3c2[nH]c2ccc(Br)cc32)cc1 (stereo not drawn) [Compound 198]	–	EC50 [2]: < 10 nM
COc1ccc(C2CCCCc3c2[nH]c2ccc(Cl)cc32)cc1 (stereo not drawn) [Compound 229]	–	EC50 [2]: 10 to 40 nM
COc1cccc(C2CCCc3c2[nH]c2ccc(Br)cc32)c1 (stereo not drawn) [Compound 16, 6-Bromo-1-(3-methoxy-phenyl)-2,3,4,9-tetrahydro-1H-carbazole]	< 10	–
Cc1ccc2c(c1)c1c3n2CCN(C(C)c2ccccc2)C3CCC1 (stereo not drawn) [Compound 179, 8-Methyl-3-(1-phenyl-ethyl)-2,3,3a,4,5,6-hexahydro-1H-pyrazino[3,2,1-jk]carbazole]	–	EC50 [3]: > 1000 nM; EC50 [4]: > 10000 nM

Compound	EC50 [1] [nM]	also measured
COc1ccc(Oc2ccc3c(c2)c2c4n3CCNC4CCC2)cc1 (stereo not drawn) [Compound 187, 8-(4-Methoxy-phenoxy)-2,3,3a,4,5,6-hexahydro-1H-pyrazino[3,2,1-jk]carbazole methanesulfonic acid]	–	EC50 [3]: > 1000 nM; EC50 [4]: 18000 nM
COc1ccc2[nH]c3c(c2c1)CCCC3n1cccc1 (stereo not drawn) [Compound 56, 6-Methoxy-1-pyrrol-1-yl-2,3,4,9-tetrahydro-1H-carbazole]	40 to 200	–
Brc1ccc2[nH]c3c(c2c1)CCCC3n1cc2ccsc2c1 (stereo not drawn) [Compound 1, 6-Bromo-1-thieno[2,3-c]pyrrol-5-yl-2,3,4,9-tetrahydro-1H-carbazole]	< 10	–
CC(=O)NC1CCCc2c1[nH]c1ccc(C)cc21 (stereo not drawn) [Compound 178, N-(6-Methyl-2,3,4,9-tetrahydro-1H-carbazol-1-yl)-acetamide]	–	EC50 [3]: > 1000 nM; EC50 [4]: > 10000 nM
Brc1ccc2[nH]c3c(c2c1)CCCC3Nc1cnccn1 (stereo not drawn) [Compound 31, (6-Bromo-2,3,4,9-tetrahydro-1H-carbazol-1-yl)-pyrazin-2-yl-amine]	10 to 40	–
OC(COc1ccc(C2CCCc3c2[nH]c2ccc(Cl)cc32)cc1)Cn1ccnc1 (stereo not drawn) [Compound 220]	–	EC50 [2]: 10 to 40 nM
Oc1ccc(C2CCCc3c2[nH]c2ccc(Br)cc32)cc1 (stereo not drawn) [Compound 193]	–	EC50 [2]: 10 to 40 nM
OC(COc1ccc(C2CCCc3c2[nH]c2ccc(Br)cc32)cc1)Cn1cncn1 (stereo not drawn) [Compound 203]	–	EC50 [2]: 10 to 40 nM
FC(F)(F)Oc1ccc(NC2CCCc3c2[nH]c2ccc(Br)cc32)cc1 (stereo not drawn) [Compound 19, (6-Bromo-2,3,4,9-tetrahydro-1H-carbazol-1-yl)-(4-trifluoromethoxy-phenyl)-amine]	< 10	–
FC(F)(F)Oc1ccc2[nH]c3c(c2c1)CCCC3Nc1ccccc1 (stereo not drawn) [Compound 34, Phenyl-(6-trifluoromethoxy-2,3,4,9-tetrahydro-1H-carbazol-1-yl)-amine]	10 to 40	–
O/N=C1\CCCc2c1[nH]c1ccc(Br)cc21 [Compound 87, 6-Bromo-2,3,4,9-tetrahydro-carbazol-1-one oxime]	> 1000	–
O=C(NC1CCCc2c1[nH]c1ccc(Br)cc21)Oc1ccccc1 (stereo not drawn) [Compound 75, (6-Bromo-2,3,4,9-tetrahydro-1H-carbazol-1-yl)-carbamic acid phenyl ester]	–	EC50 (compounds 1-155, hypoxic conditions (1% O2), read-out: ELISA Activity): > 1000 nM
Brc1ccc2[nH]c3c(c2c1)CCCC3Nc1ccon1 (stereo not drawn) [Compound 51, (6-Bromo-2,3,4,9-tetrahydro-1H-carbazol-1-yl)-isoxazol-3-yl-amine]	40 to 200	–
O=C1CCCc2c1[nH]c1ccc(Br)cc21 [Compound 50, 6-Bromo-2,3,4,9-tetrahydro-carbazol-1-one]	40 to 200	–
Fc1cccc(NC2CCCc3c2[nH]c2ccc(Br)cc32)c1 (stereo not drawn) [Compound 12, (6-Bromo-2,3,4,9-tetrahydro-1H-carbazol-1-yl)-(3-fluoro-phenyl)-amine]	< 10	–
OCC(O)COc1ccc(C2CCCc3c2[nH]c2ccc(Cl)cc32)cc1 (stereo not drawn) [Compound 213]	–	EC50 [2]: 10 to 40 nM
N#Cc1ccn(C2CCCc3c2[nH]c2ccc(Br)cc32)c1 (stereo not drawn) [Compound 42, 1-(6-Bromo-2,3,4,9-tetrahydro-1H-carbazol-1-yl)-1H-pyrrole-3-carbonitrile]	40 to 200	–

Continued, in another order:

EC50 [1] [nM]	Compound	also measured
10 to 40	O=C(NC1CCCc2c1[nH]c1ccc(Br)cc21)c1ccc(Cl)cc1 (stereo not drawn) [Compound 134, N-(6-Bromo-2,3,4,9-tetrahydro-1H-carbazol-1-yl)-4-chloro-benzamide]	–
> 1000	O=C1N(c2ccccc2)C2CCCc3c2n1c1ccc(Br)cc31 (stereo not drawn) [Compound 112, 7-Bromo-2-phenyl-2a,3,4,5-tetrahydro-2H-2,9b-diaza-cyclopenta[jk]fluoren-1-one]	–
< 10	O=C(NC1CCCc2c1[nH]c1ccc(Br)cc21)c1ccc(Cl)s1 (stereo not drawn) [Compound 154, 5-Chloro-thiophene-2-carboxylic acid (6-bromo-2,3,4,9-tetrahydro-1H-carbazol-1-yl)-amide]	–
10 to 40	FC(F)(F)c1ccc2[nH]c3c(c2c1)CCCC3Nc1ccc(Cl)cc1 (stereo not drawn) [Compound 138, (4-Chloro-phenyl)-(6-trifluoromethyl-2,3,4,9-tetrahydro-1H-carbazol-1-yl)-amine]	–
> 1000	NC1CCCc2c1[nH]c1c(Br)cccc21 (stereo not drawn) [Compound 99, 8-Bromo-2,3,4,9-tetrahydro-1H-carbazol-1-ylamine]	–
200 to 1000	O=C(NC1CCCc2c1[nH]c1ccc(Br)cc21)c1ccoc1 (stereo not drawn) [Compound 152, Furan-3-carboxylic acid (6-bromo-2,3,4,9-tetrahydro-1H-carbazol-1-yl)-amide]	–
< 10	O=C(NC1CCCc2c1[nH]c1ccc(Br)cc21)c1ccc(F)cc1F (stereo not drawn) [Compound 133, N-(6-Bromo-2,3,4,9-tetrahydro-1H-carbazol-1-yl)-2,4-difluoro-benzamide]	–
> 1000	Brc1ccc2[nH]c3c(c2c1)CCCC3NCCCn1ccnc1 (stereo not drawn) [Compound 114, (6-Bromo-2,3,4,9-tetrahydro-1H-carbazol-1-yl)-(3-imidazol-1-yl-propyl)-amine]	–
40 to 200	O=C(NC1CCCc2c1[nH]c1ccc(Br)cc21)c1cc2ccccc2[nH]1 (stereo not drawn) [Compound 127, 1H-lndole-2-carboxylic acid (6-bromo-2,3,4,9-tetrahydro-1H-carbazol-1-yl)-amide]	–
< 10	O=C1c2sccc2CN1C1CCCc2c1[nH]c1ccc(Cl)cc21 (stereo not drawn) [Compound 148, 5-(6-Chloro-2,3,4,9-tetrahydro-1H-carbazol-1-yl)-4,5-dihydro-thieno[2,3-c]pyrrol-6-one]	–
